US20240207267A1, “(R)-Glutarimide CRBN Ligands and Methods of Use” (BeiGene Switzerland GmbH, priority 2021, published 2024)
pIC50: −log10 of the molar value. Read-outs that look alike come from different tables or passages of the source.

How the values were obtained:
CRBN&DDB1 protein = CRBN&DDB1 protein (Homo sapiens (Human), UniProt Q96SW2); test: CRBN&DDB1 HTRF (TR-FRET) assay, blocking binding of biotin labeled thalidomide; conditions: CRBN&DDB1 protein (His Tag), 30 nM biotin labeled thalidomide
Sequence of CRBN&DDB1 protein (Q96SW2 40-442): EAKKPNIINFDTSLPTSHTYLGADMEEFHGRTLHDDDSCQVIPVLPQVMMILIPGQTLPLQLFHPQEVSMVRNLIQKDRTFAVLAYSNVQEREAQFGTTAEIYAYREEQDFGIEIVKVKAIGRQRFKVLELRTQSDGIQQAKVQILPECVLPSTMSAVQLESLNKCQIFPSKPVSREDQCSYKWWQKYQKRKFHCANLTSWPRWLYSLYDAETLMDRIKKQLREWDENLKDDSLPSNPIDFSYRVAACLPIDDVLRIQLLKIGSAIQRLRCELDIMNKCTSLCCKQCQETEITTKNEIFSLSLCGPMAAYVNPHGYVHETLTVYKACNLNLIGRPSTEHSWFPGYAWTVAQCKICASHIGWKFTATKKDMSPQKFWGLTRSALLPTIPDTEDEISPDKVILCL
Sequence of CRBN&DDB1 protein (Q16531 whole entry partner, the tested form may be a part): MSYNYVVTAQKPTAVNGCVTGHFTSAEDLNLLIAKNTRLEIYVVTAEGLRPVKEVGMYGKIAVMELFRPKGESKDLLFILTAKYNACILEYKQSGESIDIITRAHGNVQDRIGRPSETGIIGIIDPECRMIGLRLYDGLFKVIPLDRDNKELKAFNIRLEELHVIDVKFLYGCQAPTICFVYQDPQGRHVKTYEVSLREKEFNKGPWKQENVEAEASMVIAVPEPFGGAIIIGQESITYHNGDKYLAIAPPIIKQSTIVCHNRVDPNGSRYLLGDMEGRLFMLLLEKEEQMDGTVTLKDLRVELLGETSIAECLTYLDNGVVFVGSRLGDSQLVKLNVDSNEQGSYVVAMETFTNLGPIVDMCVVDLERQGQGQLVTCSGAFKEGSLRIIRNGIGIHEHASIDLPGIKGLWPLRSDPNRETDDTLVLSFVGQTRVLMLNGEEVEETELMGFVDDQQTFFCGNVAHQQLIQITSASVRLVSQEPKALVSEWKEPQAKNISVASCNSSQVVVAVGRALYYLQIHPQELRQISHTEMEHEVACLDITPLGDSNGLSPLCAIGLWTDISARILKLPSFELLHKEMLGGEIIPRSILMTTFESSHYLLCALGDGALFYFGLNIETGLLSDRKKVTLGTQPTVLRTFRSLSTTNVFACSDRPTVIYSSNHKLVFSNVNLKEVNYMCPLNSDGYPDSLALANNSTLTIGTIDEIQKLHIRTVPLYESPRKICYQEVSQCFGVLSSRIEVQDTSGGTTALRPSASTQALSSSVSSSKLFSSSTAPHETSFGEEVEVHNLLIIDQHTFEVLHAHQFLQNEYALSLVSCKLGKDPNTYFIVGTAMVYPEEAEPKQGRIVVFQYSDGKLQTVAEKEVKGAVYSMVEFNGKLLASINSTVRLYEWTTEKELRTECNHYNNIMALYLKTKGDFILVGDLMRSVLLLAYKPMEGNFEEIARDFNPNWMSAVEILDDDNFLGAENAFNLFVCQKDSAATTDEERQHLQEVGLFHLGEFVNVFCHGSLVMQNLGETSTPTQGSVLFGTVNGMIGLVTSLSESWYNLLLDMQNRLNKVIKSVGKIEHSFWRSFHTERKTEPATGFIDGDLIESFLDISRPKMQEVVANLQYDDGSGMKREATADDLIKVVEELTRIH
Description: Biochemical potency of compound was determined by using CRBN& DDB1 protein (His Tag). Compounds were tested for blocking the binding of CRBN&DDB1 protein (CRBN, aa 40-442, DDB1, 1-1140, Viva Biotech) with biotin labeled thalidomide in an assay based on the time-resolved fluorescence-resonance energy transfer (TR-FRET) methodology. The assay was carried out in 384-well low volume black plates in a reaction mixture containing CRBN& DDB1 protein, 30 nM biotin labeled thalidomide and 0-10 μM compound in buffer containing 50 mM HEPES pH7.5, 50 mM NaCl, 0.01% BSA, 1 mM DTT and 0.015% Brij-35. The protein was preincubated with compound for 60 minutes at room temperature and biotin labeled thalidomide was added to plate. After further incubation at room temperature for 60 minutes detection reagents Mab Anti-6His Eu cryptate Gold (Cisbio, Cat #61HI2KLB) and Streptavidin-XL665 (Cisbio, Cat #610SAXLG) were added to plate. Plates were sealed and incubated at room temperature for 1 hour, and the TR-FRET signals (ex337 nm, em665 nm/620 nm) were recorded on a PHERAstar FSX plate reader (BMG Labtech). The inhibition percentage of CRBN& DDB1 protein interaction with biotin labeled thalidomide in presence of increasing concentrations of compounds was calculated based on the ratio of fluorescence at 665 nm to that at 620 nm. IC50 was derived from fitting the dose-response % inhibition data to the four-parameter logistic model by Dotmatics.
Four-parameter logistic equation: Y=Bottom+(Top−Bottom)/(1+10^((LogIC50−X) *HillSlope)). While X is Log of compound concentration. Y is % inhibition at X. Bottom is the bottom of the curve effect. Top is the top of the curve effect. HillSlope is the hill slope factor.

[1] = tested on: EGFR Del19/T790M/C797S (BaF3-DTC cells); test: EGFR degradation HTRF assay in BaF3-DTC cells; type: cell-based; conditions: 16 h treatment, Table 1; for DTC Dmax: maximum percentage of degradation
Description: (§1) BaF3-LTC(L858R/T790M/C797S) and BaF3-DTC(Del19/T790M/C797S) cells are treated with compounds diluted in 0.2% DMSO cell culture medium and incubate for 16 h, 37° C., 5% CO2, H1975- #28 cells are treated with compounds diluted in 0.2% DMSO cell culture medium on day 2, incubate for 16 h, 37° C., 5% CO2. the final concentration of compounds in all assay is start with 10 uM, 5-fold dilution, total 8 doses were included.
(§2) After 16 h treatment, add HTRF lysis buffer to each well; seal the plate and incubate 1 hour at room temperature on a plate shaker; Once the cells are lysed, 16 μL of cell lysate are transferred to a PE 384-well HTRF detection plate; 4 μL of pre-mixed HTRF antibodies are added to each well; Cover the plate with a plate sealer, spin 1000 rpm for 1 min, Incubate overnight at room temperature; Read on BMG PheraStar with HTRF protocol (337 nm-665 nm-620 nm).
(§3) The IC50 (DC50) value of a compound can be obtained by fitting the following equation
(§4) Y=Bottom+(TOP−Bottom)/(1+((IC50/X)^hillslope))
(§5) Wherein, X and Y are known values, and IC50, Hillslope, Top and Bottom are the parameters obtained by fitting with software. Y is the inhibition percentage (calculated from the equation), X is the concentration of the compound; IC50 is the concentration of the compound when the 50% inhibition is reached. The smaller the IC50 value is, the stronger the inhibitory ability of the compound is. Vice versa, the higher the IC50 value is, the weaker the ability the inhibitory ability of the compound is; Hillslope represents the slope of the fitted curve, generally around 1*; Bottom represents the minimum value of the curve obtained by data fitting, which is generally 0%±20%; Top represents the maximum value of the curve obtained by data fitting, which is generally 100%±20%. The experimental data were fitted by calculating and analyzing with Dotmatics data analysis software.

[2] = target: EGFR L858R/T790M/C797S (BaF3-LTC cells) (Homo sapiens (Human), UniProt P00533, C797S/L858R/T790M); test: EGFR degradation HTRF assay in BaF3-LTC cells; type: cell-based; conditions: 16 h treatment; for Dmax: maximum percentage of degradation
Sequence of EGFR L858R/T790M/C797S (BaF3-LTC cells) (P00533 25-1210 T790M/C797S/L858R): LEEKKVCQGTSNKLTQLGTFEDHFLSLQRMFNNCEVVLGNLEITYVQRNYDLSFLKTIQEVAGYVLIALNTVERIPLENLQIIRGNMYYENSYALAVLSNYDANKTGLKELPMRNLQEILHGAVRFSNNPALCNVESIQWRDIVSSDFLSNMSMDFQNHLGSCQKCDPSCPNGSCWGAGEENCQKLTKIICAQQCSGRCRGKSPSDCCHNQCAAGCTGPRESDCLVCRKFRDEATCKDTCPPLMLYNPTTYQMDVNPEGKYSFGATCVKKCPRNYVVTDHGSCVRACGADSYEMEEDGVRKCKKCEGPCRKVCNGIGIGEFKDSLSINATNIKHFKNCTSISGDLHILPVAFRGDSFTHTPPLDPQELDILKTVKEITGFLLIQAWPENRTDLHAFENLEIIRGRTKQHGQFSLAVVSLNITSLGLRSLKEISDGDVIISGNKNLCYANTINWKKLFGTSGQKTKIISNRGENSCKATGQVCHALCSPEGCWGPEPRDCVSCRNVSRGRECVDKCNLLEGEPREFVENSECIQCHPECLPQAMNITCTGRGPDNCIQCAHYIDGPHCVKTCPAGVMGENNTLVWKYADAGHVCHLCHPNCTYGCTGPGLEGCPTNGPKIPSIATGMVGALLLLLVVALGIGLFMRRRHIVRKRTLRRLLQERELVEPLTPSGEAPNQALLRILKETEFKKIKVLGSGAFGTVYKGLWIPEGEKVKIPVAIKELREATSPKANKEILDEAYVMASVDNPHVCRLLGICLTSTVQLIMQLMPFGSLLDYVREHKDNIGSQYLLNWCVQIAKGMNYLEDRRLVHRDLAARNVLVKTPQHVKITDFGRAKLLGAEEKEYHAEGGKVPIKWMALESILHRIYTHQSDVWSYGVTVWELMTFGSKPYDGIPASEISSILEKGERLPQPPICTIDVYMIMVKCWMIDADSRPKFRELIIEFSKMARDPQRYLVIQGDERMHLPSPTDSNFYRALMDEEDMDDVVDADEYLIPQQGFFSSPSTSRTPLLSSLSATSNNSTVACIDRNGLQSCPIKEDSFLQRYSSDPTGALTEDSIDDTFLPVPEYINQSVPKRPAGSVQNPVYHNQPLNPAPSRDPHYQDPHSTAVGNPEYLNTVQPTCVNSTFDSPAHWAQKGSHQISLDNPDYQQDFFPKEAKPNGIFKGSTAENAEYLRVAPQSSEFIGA
Description: as §1, §2, §3, §4, §5

[3] = tested on: EGFR Del19/T790M/C797S (H1975-clone #28 cells); test: EGFR degradation HTRF assay in H1975-clone #28 cells; type: cell-based; conditions: H1975-clone #28(Del19/T790M/C797S) cells, 16 h treatment, Table 2; for DC50: read-out: H1975 # 28 DTC DC50; for H1975 # 28 DTC Dmax: maximum percentage of degradation
Description: H1975-clone #28(Del19/T790M/C797S) was stably expressed in H1975 cell lines (from ATCC) by lentivirus-mediated over-expression. The EGFR over-expressed cells then underwent gene knockout, in which the EGFR targeting sgRNA was designed to only target the endogenous EGFR copies and preserve the exogenous EGFR copies. Followed by the gene knockout, the edited H1975 cells were seeded in 96 well plates at the concentration of […], cultured for about 2 weeks to allow single clones formation. The formed clones were screened by DNA sequencing and whole exon sequencing analysis for the desired edition. H1975-clone #28 was finally confirmed as homozygous Del19/T790M/C797S EGFR clone
as §1, §2, §3, §4, §5

[4] = Table 2, read-out: BaF3-LTC DC50

CCO/C=C/c1cc(F)c([C@@H]2CCC(=O)NC2=O)c(F)c1 [Example 2, (S,E)-3-(4-(2-ethoxyvinyl)-2,6-difluorophenyl)piperidine-2,6-dione]
pIC50 (CRBN&DDB1 protein): 6.39

O=C1CC[C@H](c2c(F)cc(N3CC[C@@H](C(=O)O)C3)cc2F)C(=O)N1 [Example 5, (R)-1-(4-((R)-2,6-dioxopiperidin-3-yl)-3,5-difluorophenyl)pyrrolidine-3-carboxylic acid]
pIC50 (CRBN&DDB1 protein): 7.59

O=C1CC[C@@H](c2c(F)cc(N3CC[C@@H](C(=O)O)C3)cc2F)C(=O)N1 [Example 6, (R)-1-(4-((S)-2,6-dioxopiperidin-3-yl)-3,5-difluorophenyl)pyrrolidine-3-carboxylic acid]
pIC50 (CRBN&DDB1 protein): 5.97

O=C1CC[C@H](c2c(F)cc(N3CC[C@@H](CO)C3)cc2F)C(=O)N1 [Example 7, (R)-3-(2,6-difluoro-4-((R)-3-(hydroxymethyl)pyrrolidin-1-yl)phenyl)piperidine-2,6-dione]
pIC50 (CRBN&DDB1 protein): 7.66

O=C1CCC(c2c(F)cc(N3CC(CO)C3)cc2F)C(=O)N1 (stereo not drawn) [Example 9, 3-(2,6-difluoro-4-(3-(hydroxymethyl)azetidin-1-yl)phenyl)piperidine-2,6-dione]
pIC50 (CRBN&DDB1 protein): 7.19

O=C1CCC(c2ccc(N3CC[C@@H](C(=O)O)C3)cc2)C(=O)N1 (stereo partly drawn) [Example 12, (3R)-1-(4-(2,6-dioxopiperidin-3-yl)phenyl)pyrrolidine-3-carboxylic acid]
pIC50 (CRBN&DDB1 protein): 6.75

CCO/C=C/c1cc(F)c([C@H]2CCC(=O)NC2=O)c(F)c1 [Example 13, (R,E)-3-(4-(2-ethoxyvinyl)-2,6-difluorophenyl)piperidine-2,6-dione]
pIC50 (CRBN&DDB1 protein): 7.57

CC1(C)CN(c2cc(F)c([C@H]3CCC(=O)NC3=O)c(F)c2)C[C@H]1C(=O)O [Example 14, (S)-1-(4-((R)-2,6-dioxopiperidin-3-yl)-3,5-difluorophenyl)-4,4-dimethylpyrrolidine-3-carboxylic acid]
pIC50 (CRBN&DDB1 protein): 7.62

O=C1CCC(c2ccc(CCO)cc2)C(=O)N1 (stereo not drawn) [Example 15, 3-(4-(2-hydroxyethyl)phenyl)piperidine-2,6-dione]
pIC50 (CRBN&DDB1 protein): 6.62

CCc1cc(Nc2ncc(Br)c(Nc3ccc4nccnc4c3P(C)(C)=O)n2)c(OC)cc1N1CCC(N2CCN(CCc3cc(F)c([C@H]4CCC(=O)NC4=O)c(F)c3)CC2)CC1 [Example 16, (R)-3-(4-(2-(4-(1-(4-((5-bromo-4-((5-(dimethylphosphoryl)quinoxalin-6-yl)amino)pyrimidin-2-yl)amino)-2-ethyl-5-methoxyphenyl)piperidin-4-yl)piperazin-1-yl)ethyl)-2,6-difluorophenyl)piperidine-2,6-dione]
DC50 [1]: 0.61 nM | DTC Dmax [1]: 88.65% | DC50 ([2]; Table 1, read-out: LTC DC50): 6.1 nM | Dmax ([2]; Table 1, read-out: LTC Dmax): 91.5%

CCc1cc(Nc2ncc(Br)c(Nc3ccc4nccnc4c3P(C)(C)=O)n2)c(OC)cc1N1CCC(N2CCN(CCc3cc(F)c([C@@H]4CCC(=O)NC4=O)c(F)c3)CC2)CC1 [Example 17, (S)-3-(4-(2-(4-(1-(4-((5-bromo-4-((5-(dimethylphosphoryl)quinoxalin-6-yl)amino)pyrimidin-2-yl)amino)-2-ethyl-5-methoxyphenyl)piperidin-4-yl)piperazin-1-yl)ethyl)-2,6-difluorophenyl)piperidine-2,6-dione]
DC50 [1]: 6.75 nM | DTC Dmax [1]: 64.81% | DC50 ([2]; Table 1, read-out: LTC DC50): 45.1 nM | Dmax ([2]; Table 1, read-out: LTC Dmax): 84.6%

CCc1cc(Nc2ncc(Br)c(Nc3ccc4nccnc4c3P(C)(C)=O)n2)c(OC)cc1N1CCC(N2CCN(CCc3cc(F)c(C4CCC(=O)NC4=O)c(F)c3)CC2)CC1 (stereo not drawn) [Example 18, 3-(4-(2-(4-(1-(4-((5-bromo-4-((5-(dimethylphosphoryl)quinoxalin-6-yl)amino)pyrimidin-2-yl)amino)-2-ethyl-5-methoxyphenyl)piperidin-4-yl)piperazin-1-yl)ethyl)-2,6-difluorophenyl)piperidine-2,6-dione]
DC50 [1]: 3.74 nM | DTC Dmax [1]: 95.55% | DC50 ([2]; Table 1, read-out: LTC DC50): 8.82 nM

CCc1cc(Nc2ncc(Br)c(Nc3ccc4nccnc4c3P(C)(C)=O)n2)c(OC)cc1N1CCC(N2CCN(CCc3ccc(C4CCC(=O)NC4=O)cc3)CC2)CC1 (stereo not drawn) [Example 19, 3-(4-(2-(4-(1-(4-((5-bromo-4-((5-(dimethylphosphoryl)quinoxalin-6-yl)amino)pyrimidin-2-yl)amino)-2-ethyl-5-methoxyphenyl)piperidin-4-yl)piperazin-1-yl)ethyl)phenyl)piperidine-2,6-dione]
DC50 [1]: 6.87 nM | DTC Dmax [1]: 92.16% | DC50 ([2]; Table 1, read-out: LTC DC50): 18.2 nM

CCc1cc(Nc2ncc(Br)c(Nc3ccc4nc(C)ccc4c3P(C)(C)=O)n2)c(OC)cc1N1CCC(N2CCN(C(=O)[C@@H]3CCN(c4ccc([C@H]5CCC(=O)NC5=O)cc4)C3)CC2)CC1 [Example 28, (R)-3-(4-((R)-3-(4-(1-(4-((5-bromo-4-((5-(dimethylphosphoryl)-2-methylquinolin-6-yl)amino)pyrimidin-2-yl)amino)-2-ethyl-5-methoxyphenyl)piperidin-4-yl)piperazine-1-carbonyl)pyrrolidin-1-yl)phenyl)piperidine-2,6-dione]
DC50 [2, 4]: 7.8 nM | DC50 [3]: 0.595 nM | H1975 # 28 DTC Dmax [3]: 62.25%

CCc1cc(Nc2ncc(Br)c(Nc3ccc4nc(C)ccc4c3P(C)(C)=O)n2)c(OC)cc1N1CCC(N2CCN(C(=O)[C@@H]3CCN(c4ccc([C@@H]5CCC(=O)NC5=O)cc4)C3)CC2)CC1 [Example 29, (S)-3-(4-((R)-3-(4-(1-(4-((5-bromo-4-((5-(dimethylphosphoryl)-2-methylquinolin-6-yl)amino)pyrimidin-2-yl)amino)-2-ethyl-5-methoxyphenyl)piperidin-4-yl)piperazine-1-carbonyl)pyrrolidin-1-yl)phenyl)piperidine-2,6-dione]
DC50 [2, 4]: 85.4 nM | Dmax ([2]; Table 2, read-out: BaF3-LTC Dmax): 77.1% | DC50 [3]: > 10000 nM | H1975 # 28 DTC Dmax [3]: −4.12%
